The record followed here is patent US8148391B2 (Cephalon, Inc., priority 2006, dated 2012).

In assay [1] the target is T1, baculovirus-expressed ALK (Homo sapiens, UniProt Q9UM73).
T1 construct: host or cells: baculovirus expression system
As to the kind of experiment: ALK Kinase Assay (ELISA-type, time-resolved fluorescence). The format is biochemical. To be noted: 1 μM ATP (Km level); read-out: ALK Activity (ALK Kinase Inhibition, IC50). A digest of the protocol: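 Plates coated with phospholipase C-γ substrate (10 μg/mL in TBS); reaction started with 30 ng/ml ALK and run 15 min at 37° C. Phosphorylated substrate detected with Eu-N1-labeled PT66 antibody. IC50 from sigmoidal variable-slope fit of percent inhibition vs log concentration.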

Assay [2] deals with T2, c-Met (cytoplasmic domain) (Homo sapiens, UniProt P08581).
T2 construct: 10 ng/mL c-Met (cytoplasmic domain, Invitrogen Corporation #PV3143); purchased Invitrogen Corporation PV3143
T2 sequence (P08581 956-1390 limits assumed): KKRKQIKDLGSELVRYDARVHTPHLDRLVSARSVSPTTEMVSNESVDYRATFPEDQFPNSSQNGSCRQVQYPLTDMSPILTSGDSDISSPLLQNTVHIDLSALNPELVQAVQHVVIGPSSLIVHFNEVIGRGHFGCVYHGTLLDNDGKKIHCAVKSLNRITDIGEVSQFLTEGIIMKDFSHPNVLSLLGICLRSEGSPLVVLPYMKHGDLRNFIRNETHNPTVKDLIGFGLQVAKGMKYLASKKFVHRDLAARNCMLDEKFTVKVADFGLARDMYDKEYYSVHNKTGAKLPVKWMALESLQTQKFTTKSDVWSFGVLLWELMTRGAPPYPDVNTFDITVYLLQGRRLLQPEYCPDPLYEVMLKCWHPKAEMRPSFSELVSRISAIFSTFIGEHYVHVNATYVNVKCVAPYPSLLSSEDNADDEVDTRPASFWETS
As to the kind of experiment: c-Met Kinase Assay (same methods as for ALK, with modifications). The format is biochemical. As to conditions: 1 μM ATP (Km level); read-out: cMet Activity (c-Met Kinase Inhibition, IC50). A digest of the protocol: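 Plates were coated with phospholipase C-γ substrate (10 μg/mL) in TBS, and the reaction was started with 10 ng/mL c-Met cytoplasmic domain and run 15 min at 37 °C. Phosphoproduct was detected with Eu-N1-labelled PT66 antibody. IC50 came from a variable-slope sigmoidal fit of percent inhibition vs log concentration.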

T1 sequence (Q9UM73 19-1620): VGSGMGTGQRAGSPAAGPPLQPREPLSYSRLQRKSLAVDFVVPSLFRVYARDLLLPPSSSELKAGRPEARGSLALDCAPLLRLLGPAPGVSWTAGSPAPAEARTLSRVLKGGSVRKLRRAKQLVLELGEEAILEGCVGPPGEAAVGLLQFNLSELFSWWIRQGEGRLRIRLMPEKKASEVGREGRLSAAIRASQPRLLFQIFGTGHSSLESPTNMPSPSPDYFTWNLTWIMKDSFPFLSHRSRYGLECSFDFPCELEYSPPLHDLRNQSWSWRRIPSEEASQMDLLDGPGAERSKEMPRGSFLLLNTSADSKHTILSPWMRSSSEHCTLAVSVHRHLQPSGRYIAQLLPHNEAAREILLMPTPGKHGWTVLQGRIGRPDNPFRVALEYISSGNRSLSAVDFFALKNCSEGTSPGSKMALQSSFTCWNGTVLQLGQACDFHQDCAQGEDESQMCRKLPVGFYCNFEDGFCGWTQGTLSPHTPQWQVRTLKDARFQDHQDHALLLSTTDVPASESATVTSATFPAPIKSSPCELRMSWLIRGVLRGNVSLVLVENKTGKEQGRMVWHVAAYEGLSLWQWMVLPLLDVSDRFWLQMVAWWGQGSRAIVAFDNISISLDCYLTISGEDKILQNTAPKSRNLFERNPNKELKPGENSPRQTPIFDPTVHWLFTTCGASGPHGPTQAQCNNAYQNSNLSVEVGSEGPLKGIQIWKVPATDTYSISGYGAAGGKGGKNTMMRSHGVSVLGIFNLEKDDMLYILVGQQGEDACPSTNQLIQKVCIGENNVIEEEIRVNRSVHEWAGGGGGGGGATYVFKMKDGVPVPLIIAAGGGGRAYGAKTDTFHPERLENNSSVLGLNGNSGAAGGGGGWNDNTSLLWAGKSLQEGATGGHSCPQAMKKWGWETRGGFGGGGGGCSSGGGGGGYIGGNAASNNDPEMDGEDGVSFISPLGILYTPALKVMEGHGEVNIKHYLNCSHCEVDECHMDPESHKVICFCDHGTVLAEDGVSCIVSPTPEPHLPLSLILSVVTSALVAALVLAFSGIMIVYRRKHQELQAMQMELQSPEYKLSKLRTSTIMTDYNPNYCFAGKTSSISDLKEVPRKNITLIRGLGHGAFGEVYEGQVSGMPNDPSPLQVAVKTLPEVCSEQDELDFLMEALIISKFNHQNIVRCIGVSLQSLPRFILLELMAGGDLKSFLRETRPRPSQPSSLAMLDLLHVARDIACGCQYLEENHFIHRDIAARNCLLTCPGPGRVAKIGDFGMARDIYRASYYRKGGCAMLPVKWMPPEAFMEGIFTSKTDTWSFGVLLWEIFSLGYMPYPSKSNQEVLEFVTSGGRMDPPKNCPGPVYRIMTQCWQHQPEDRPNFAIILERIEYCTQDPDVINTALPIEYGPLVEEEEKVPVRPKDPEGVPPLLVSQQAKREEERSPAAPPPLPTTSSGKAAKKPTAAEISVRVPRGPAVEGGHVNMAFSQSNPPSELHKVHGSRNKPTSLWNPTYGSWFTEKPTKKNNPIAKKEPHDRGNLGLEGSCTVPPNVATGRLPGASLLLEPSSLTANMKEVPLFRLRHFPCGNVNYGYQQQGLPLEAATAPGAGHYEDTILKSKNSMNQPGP

Consider `CCNC(=O)c1cccc(F)c1Nc1nc(Nc2cc3c(cc2OC)CCN(CC(C)(F)F)CC3)ncc1Cl` [Example 789, 2-{5-Chloro-2-[3-(2,2-difluoro-propyl)-8-methoxy-2,3,4,5-tetrahydro-1H-benzo[d]azepin-7-ylamino]-pyrimidin-4-ylamino}-N-ethyl-3-fluoro-benzamide], for which the IC50 in assay [1] was less than 0.1 µM; in assay [2], 1 to 10 µM.
As for `COCCN1CCc2cc(Nc3ncc(Cl)c(Nc4ccc(N5CCN(C)CC5)cc4OC)n3)c(OC)cc2CC1` [Example 790, 5-Chloro-N*2*-[8-methoxy-3-(2-methoxy-ethyl)-2,3,4,5-tetrahydro-1H-benzo[d]azepin-7-yl]-N*4*-[2-methoxy-4-(4-methyl-piperazin-1-yl)-phenyl]-pyrimidine-2,4-diamine], the IC50 is less than 0.1 µM in assay [1] and more than 10 µM in assay [2].
On the same counts, the results for `COc1cc2c(cc1Nc1ncc(Cl)c(Nc3ccc(N4CCN(C)CC4)c(C)c3)n1)CCN(CC(=O)N(C)C)CC2` [Example 792, 2-(7-{5-Chloro-4-[3-methyl-4-(4-methyl-piperazin-1-yl)-phenylamino]-pyrimidin-2-ylamino}-8-methoxy-1,2,4,5-tetrahydro-benzo[d]azepin-3-yl)-N,N-dimethyl-acetamide] are less than 0.1 µM and more than 10 µM.
For `COc1cc2c(cc1Nc1ncc(F)c(Nc3ccc(N4CCN(C)CC4)cc3OC)n1)CCN(CC(=O)N(C)C)CC2` [Example 793, 2-(7-{5-Fluoro-4-[2-methoxy-4-(4-methyl-piperazin-1-yl)-phenylamino]-pyrimidin-2-ylamino}-8-methoxy-1,2,4,5-tetrahydro-benzo[d]azepin-3-yl)-N,N-dimethyl-acetamide], in that order: less than 0.1 µM and more than 10 µM.
For `COc1cc2c(cc1Nc1ncc(Cl)c(Nc3ccc(N4CC5CC4CO5)cc3OC)n1)CCN(CC(=O)N(C)C)CC2` (centres unmarked) [Example 794, 2-(7-{5-Chloro-4-[2-methoxy-4-(2-oxa-5-aza-bicyclo[2.2.1]hept-5-yl)-phenylamino]-pyrimidin-2-ylamino}-8-methoxy-1,2,4,5-tetrahydro-benzo[d]azepin-3-yl)-N,N-dimethyl-acetamide], in that order: less than 0.1 µM and more than 10 µM.
In the case of `CCN1CC2CC1CN2c1ccc(Nc2nc(Nc3cc4c(cc3OC)CCN(CC(=O)N(C)C)CC4)ncc2Cl)c(OC)c1` (centres unmarked) [Example 795, 2-(7-{5-Chloro-4-[4-(5-ethyl-2,5-diaza-bicyclo[2.2.1]hept-2-yl)-2-methoxy-phenylamino]-pyrimidin-2-ylamino}-8-methoxy-1,2,4,5-tetrahydro-benzo[d]azepin-3-yl)-N,N-dimethyl-acetamide], the IC50 is less than 0.1 µM in assay [1] and 1 to 10 µM in assay [2].
On the same counts, the results for `COc1cc2c(cc1Nc1ncc(Cl)c(Nc3ccc(N4CCOCC4)c(C)c3)n1)CCN(CC(=O)N(C)C)CC2` [Example 796, 2-{7-[5-Chloro-4-(3-methyl-4-morpholin-4-yl-phenylamino)-pyrimidin-2-ylamino]-8-methoxy-1,2,4,5-tetrahydro-benzo[d]azepin-3-yl}-N,N-dimethyl-acetamide] are less than 0.1 µM and more than 10 µM.
On the same counts, the results for `CNC(=O)CN1CCc2cc(Nc3ncc(F)c(Nc4ccc(N5CCN(C)CC5)cc4OC)n3)c(OC)cc2CC1` [Example 797, 2-(7-{5-Fluoro-4-[2-methoxy-4-(4-methyl-piperazin-1-yl)-phenylamino]-pyrimidin-2-ylamino}-8-methoxy-1,2,4,5-tetrahydro-benzo[d]azepin-3-yl)-N-methyl-acetamide] are less than 0.1 µM and more than 10 µM.
For `CNC(=O)CN1CCc2cc(Nc3ncc(Cl)c(Nc4ccc(N5CCN(C)CC5)c(C)c4)n3)c(OC)cc2CC1` [Example 798, 2-(7-{5-Chloro-4-[3-methyl-4-(4-methyl-piperazin-1-yl)-phenylamino]-pyrimidin-2-ylamino}-8-methoxy-1,2,4,5-tetrahydro-benzo[d]azepin-3-yl)-N-methyl-acetamide], in that order: less than 0.1 µM and more than 10 µM.
In the case of `COc1cc2c(cc1Nc1ncc(Cl)c(Nc3ccc(N4CCOCC4)cc3OC)n1)CCN(CC(N)=O)CC2` [Example 799, 2-{7-[5-Chloro-4-(2-methoxy-4-morpholin-4-yl-phenylamino)-pyrimidin-2-ylamino]-8-methoxy-1,2,4,5-tetrahydro-benzo[d]azepin-3-yl}-acetamide], the IC50 is less than 0.1 µM in assay [1] and more than 10 µM in assay [2].
As for `COc1cc2c(cc1Nc1ncc(Cl)c(Nc3ccc(N4CCOCC4)cc3OC)n1)CCN(CC(=O)OC(C)C)CC2` [Example 800, {7-[5-Chloro-4-(2-methoxy-4-morpholin-4-yl-phenylamino)-pyrimidin-2-ylamino]-8-methoxy-1,2,4,5-tetrahydro-benzo[d]azepin-3-yl}-acetic acid isopropyl ester], the results for the IC50 in assay [1] and in assay [2] were less than 0.1 µM and more than 10 µM, respectively.
On the same counts, the results for `COc1cc2c(cc1Nc1ncc(Cl)c(Nc3ccc(N4CCOCC4)cc3C)n1)CCN(CC(=O)N(C)C)CC2` [Example 801, 2-{7-[5-Chloro-4-(2-methyl-4-morpholin-4-yl-phenylamino)-pyrimidin-2-ylamino]-8-methoxy-1,2,4,5-tetrahydro-benzo[d]azepin-3-yl}-N,N-dimethyl-acetamide] are less than 0.1 µM and more than 10 µM.
For `COc1cc2c(cc1Nc1ncc(Cl)c(Nc3ccc(N4CCN(C)CC4)cc3C)n1)CCN(CC(=O)N(C)C)CC2` [Example 802, 2-(7-{5-Chloro-4-[2-methyl-4-(4-methyl-piperazin-1-yl)-phenylamino]-pyrimidin-2-ylamino}-8-methoxy-1,2,4,5-tetrahydro-benzo[d]azepin-3-yl)-N,N-dimethyl-acetamide], in that order: less than 0.1 µM and more than 10 µM.
For `COc1cc2c(cc1Nc1ncc(Cl)c(Nc3ccc(N4CCOCC4)c(OC)c3)n1)CCN(CC(=O)N(C)C)CC2` [Example 803, 2-{7-[5-Chloro-4-(3-methoxy-4-morpholin-4-yl-phenylamino)-pyrimidin-2-ylamino]-8-methoxy-1,2,4,5-tetrahydro-benzo[d]azepin-3-yl}-N,N-dimethyl-acetamide], in that order: less than 0.1 µM and more than 10 µM.
As for `COc1cc2c(cc1Nc1ncc(Cl)c(Nc3ccc(N4CCN(C)CC4)c(OC)c3)n1)CCN(CC(=O)N(C)C)CC2` [Example 804, 2-(7-{5-Chloro-4-[3-methoxy-4-(4-methyl-piperazin-1-yl)-phenylamino]-pyrimidin-2-ylamino}-8-methoxy-1,2,4,5-tetrahydro-benzo[d]azepin-3-yl)-N,N-dimethyl-acetamide], the IC50 is less than 0.1 µM in assay [1] and more than 10 µM in assay [2].
Turning to `COc1cc2c(cc1Nc1ncc(F)c(Nc3ccc(N4CCN(C)CC4)cc3OC)n1)CCN(CCS(C)(=O)=O)CC2` [Example 805, 5-Fluoro-N*2*-[3-(2-methanesulfonyl-ethyl)-8-methoxy-2,3,4,5-tetrahydro-1H-benzo[d]azepin-7-yl]-N*4*-[2-methoxy-4-(4-methyl-piperazin-1-yl)-phenyl]-pyrimidine-2,4-diamine], the IC50 in assay [1] is less than 0.1 µM; in assay [2], more than 10 µM.

The term IC50 denotes the concentration needed to halve the response being measured.
